Experimental data: US5420228A, “Fluorescent-labelled bleomycin analogues” (University of Pittsburgh of the Commonwealth System of …, priority 1994, dated 1995)
Entries after “also recorded” stand apart in the source; their conditions may differ.

Experiments:
[1] = Fluorescent intensity and quantum yield in solution; format: physicochemical; details: for relative fluorescent units: 1 μM solutions
Procedure: Absorption spectra were obtained using a Perkin-Elmer (Lambda 2) UV/VIS spectrophotometer. Fluorescence spectra were obtained by using either a Perkin-Elmer 650-10S fluorescent spectrophotometer or a SPEX Fluorolog 2. Proton NMR spectra were recorded with a Bruker 300 MHz pulsed fourier transform spectrometer. The chemical shifts were determined with respect to internal standards: tetramethylsilane or 4-trimethylsilylpropanesulfonic acid.

[2] = tested on: A-253 human head and neck squamous carcinoma cells; assay: MTT microculture growth inhibition assay, A-253 cells; format: cell-based; details: for IC50: cells exposed to drugs for 4 days, MTT, ± SEM of 16 or more determinations
Procedure: (§1) A-253 human head and neck squamous carcinoma cells were obtained from the American Type Culture Collection (Rockville, Md.) and were grown in McCoy's medium supplemented with 10% fetal bovine serum (Hyclone, Logan, Utah) as previously described. See, Lazo, J. S., et al., "Characteristics of Bleomycin-resistant Phenotypes of Human Cell Sublines and Circumvention of Bleomycin Resistance by Liblomycin," Cancer Res , 49: 185-190, (1989). The BLM-resistant (C-10E) cell line was derived from A-253 cells as previously described. Id., incorporated by reference herein, and was maintained in the continuous presence of 50 nM BLM. The revertant (C-10E^R) cells were obtained by growing C-10E cells in the absence of BLM for 3 months. Cell lines were maintained at 37° C. in a humidified incubator with 95% air, 5% CO2 atmosphere.
(§2) The effect of drugs on cellular proliferation was determined using the previously described MTT microculture assay. See, Twentyman, P. R., et al., "Study of Some Variables in a Tetrazolium Dye (MTT) Based Assay for Cell Growth and Chemosensitivity," Br. J Cancer, 56: 279-285, (1987). Exponentially growing cells were plated at a density of 2 to 4×10^3 cells per well in 100 μl volume into 96-well microtiter plates (Costar, Cambridge, Mass.). After 3 hours, various concentrations of drugs were added and the plates were incubated for 4 days at 37° C. under humidified 5% CO2 -95% air atmosphere. After 4 days, the medium was replaced with 100 μl of 1 mg/ml MTT in McCoy's medium, and cells were incubated with MTT solution in McCoy's medium for 3 hours at 37° C. Excess MTT was removed, the formazan generated was dissolved in 100 μl DMSO, and the absorbance at wavelength 540 nm was determined spectrophotometrically (Titertek Multiskan; Flow Labs, McLean, Va.). The drug concentrations required to inhibit cell growth by 50% (IC50) were then determined.

C-10E cells [3] = assay: MTT microculture growth inhibition assay, BLM-resistant C-10E cells; format: cell-based, human; details: for IC50: cells exposed to drugs for 4 days, MTT, ± SEM; for resistance index C-10E: ratio of IC50 for C-10E cells compared to the IC50 for A-253 cells; for fold resistance of C-10E cells: C-10E clone relative to A-253 cells
Procedure: as §1, §2

[4] = tested on: form I plasmid pGEM-3Z DNA; assay: DNA cleavage assay, agarose gel electrophoresis and densitometry; format: biochemical; details: for form I DNA remaining after 1 minute incubation: equipotent concentrations: TLM S10b 0.05 μM, FLM 0.62 μM
Procedure: The ability of various drugs to cause breakage of covalently closed circular DNA was determined using a slight modification of a previously described DNA cleavage assay. See, Lazo, J. S., et al, "Enhanced Bleomycin-induced DNA Damage and Cytotoxicity with Calmodulin Antagonists," Molec. Pharmacol., 27: 387-393, (1985). Metal-free FLM was first made by chelating the metal with dithizone using a previously described procedure. See, Roy, S. R., et al., "Chemical Synthesis of Radiolabeled Bleomycin A2 and its Binding to DNA," Cancer Res., 41: 4471-4477, (1981), incorporated by reference herein. […] The disappearance of form I DNA and the appearance of form II and form III DNA were assayed by gel electrophoresis with 1.2% agarose gels at room temperature for 15 h at 30 V in a buffer containing 40 mM Tris-acetate and 1 mM EDTA. The gel was then stained with 1 μg/ml ethidium bromide for 1 hour and the DNA visualized by UV irradiation. A negative film of the gel was recorded and scanned using an LKB 2400 GelScan XL densitometer. The effect of incubation time on cleavage of pGEM-3Z DNA by TLM S10b and FLM was also determined using equipotent amounts of TLM S10b and FLM (0.05 and 0.62 μM, respectively) by gel electrophoresis as described above.
Equipotent concentrations of TLM S10b and FLM (0.05 and 0.62 μM, respectively) were incubated with form I DNA for 1, 5, 10, 20 and 30 minutes and the percent form I DNA remaining was calculated from densitometric scanning of the band corresponding to form I. Following incubation with FLM for 1 minute, only 6.5% form I DNA remained undegraded (lane 8). In contrast, 74% form I DNA remained intact following incubation with TLM S10b for 1 minute (lane 3) and 10 minutes incubation was required to cleave 95% of form I (lane 5).

C-10E^R cells [5] = assay: MTT microculture growth inhibition assay, revertant C-10E^R cells; format: cell-based, human; details: for resistance index C-10E ®: ratio of IC50 for C-10E ® cells compared to the IC50 for A-253 cells; for IC50: revertant cells, exposed to drugs for 4 days, MTT, ± SEM
Procedure: as §1, §2

C-10E^R cells [6] = assay: Flow cytometric analysis of cellular FLM content, C-10E^R cells; format: cell-based, human
Procedure: (§3) For each analysis, a "control" was included in which each cell line was incubated under identical conditions in the absence of FLM. […] Cells were then suspended in 100 μl PBS, fixed with 2% paraformaldehyde in 100 μl PBS and analyzed by flow cytometry using a Becton-Dickinson FAC Star. Analysis was done using a 2 W laser tuned in at 488 nm at an output strength of 200 mW. The band pass filter range =530/30. The total number of cells analyzed was 5,000.
(§4) The cell diameter as measured by Coulter counter was similar for all the three cell lines ([…]).

A-253 cells [7] = assay: Flow cytometric analysis of cellular FLM content, A-253 cells; format: cell-based, human; details: 100 μM FLM, 60 minutes, 37° C.
Procedure: as §3, §4

A-253 cells [8] = assay: Cell-associated drug by fluorescent spectrophotometry, A-253 cells; details: 1 hour, 37° C.
Procedure: (§5) Exponentially growing A-253, C-10E or C-10E^R cells were harvested and approximately 1.5×10^6 cells were incubated in 200 µl medium at 37° C. for 60 minutes in the presence or absence of 100 μM FLM. Drug incubation was terminated by washing the cells with 3×1 ml of ice-cold PBS, resuspending the cells in 1 ml of 50 mM bicarbonate buffer (pH=9.0) and lysing by sonication (4×5 sec). The cell lysate was centrifuged at 12,000 rpm (Eppendorf Microcentrifuge 5415 C) to remove cellular debris, and the supernatant was filtered through 0.2 μm SPIN-X centrifuge filter unit (Costar, Cambridge, Mass.). The cell-associated fluorescent was measured using a fluorescent spectrophotometer. Autofluorescent associated with cells in the absence of drug treatment was measured and subtracted from the fluorescent value of the drug-treated group.
(§6) To quantify the levels of cell-associated FLM in A253, C-1OE and C-10E^R cell lines, cells were incubated with 100 μM FLM for 1 hour at 37° C. and the cellular fluorescent of the three cell lines were measured by fluorometry.

C-10E cells [9] = assay: Cell-associated drug by fluorescent spectrophotometry, C-10E cells; format: cell-based, human
Procedure: as §5, §6

C-10E^R cells [10] = assay: Cell-associated drug by fluorescent spectrophotometry, C-10E^R cells; format: cell-based, human; details: 100 μM FLM, 1 hour, 37° C., fluorometry
Procedure: as §5, §6

C-10E cells [11] = assay: Flow cytometric analysis of cellular FLM content, C-10E cells; format: cell-based, human
Procedure: as §3, §4

[12] = A-253 cells, continuous exposure

Cc1c(N)nc([C@H](CC(N)=O)NC[C@H](N)C(N)=O)nc1C(=O)N[C@H](C(=O)N[C@H](C)[C@@H](O)[C@H](C)C(=O)N[C@H](C(=O)NCCc1nc(-c2nc(C(=O)NCCCN(C)CCCN(Cc3ccc(OCc4ccccc4)c(OCc4ccccc4)c3)Cc3ccc(OCc4ccccc4)c(OCc4ccccc4)c3)cs2)cs1)[C@@H](C)O)[C@@H](O[C@@H]1O[C@@H](CO)[C@@H](O)[C@H](O)[C@@H]1O[C@H]1O[C@H](CO)[C@@H](O)[C@H](OC(N)=O)[C@@H]1O)c1cnc[nH]1 [LBM, liblomycin, reference compound]
relative fluorescent units [1]: 2.1 relative fluorescent units | IC50 [2]: 500 ± 20 nM | IC50 (C-10E cells [3]): 570 ± 20 nM | resistance index C-10E (C-10E cells [3]): 1.1

Cc1c(N)nc([C@H](CC(N)=O)NC[C@H](N)C(N)=O)nc1C(=O)N[C@H](C(=O)N[C@H](C)[C@@H](O)CC(=O)N[C@H](C(=O)NC(O[C@@H]1O[C@@H](C)[C@@H](N)[C@@H](O)[C@H]1O)C(O)c1nc(-c2nc(C(=O)NCCCCN)cs2)cs1)[C@@H](C)O)[C@@H](O[C@@H]1O[C@@H](CO)[C@@H](O)[C@H](O)[C@@H]1O[C@H]1O[C@H](CO)[C@@H](O)[C@H](OC(N)=O)[C@@H]1O)c1cnc[nH]1 (stereo partly drawn) [TLM S10b, talisomycin S10b, reference compound]
form I DNA remaining undegraded ([4]; 0.05 μM drug, 20 minutes, stoichiometric Fe(II)): 21.1% | incubation required to cleave 95% of form I DNA ([4]; TLM S10b 0.05 μM): 10 min | form I DNA remaining after 1 minute incubation [4]: 74% | relative fluorescent units [1]: 2.6 relative fluorescent units | IC50 [2]: 50 ± 2.3 nM | resistance index C-10E ® (C-10E^R cells [5]): 8 | IC50 (C-10E^R cells [5]): 410 ± 9 nM | fold resistance of C-10E cells (C-10E cells [3]): 40- to 50 fold | IC50 (C-10E cells [3]): 2700 ± 23 nM | resistance index C-10E (C-10E cells [3]): 54

fluoromycin [FLM]
mean fluorescent channel number (mean FL1) (C-10E^R cells [6]; C-10E^R cells, 100 μM FLM, 60 minutes, 37° C.): 122 | fold lower fluorescent intensity, C-10E^R compared to A-253 cells (C-10E^R cells [6]; flow cytometry of FLM content): 2 fold | mean fluorescent channel number (mean FL1) (A-253 cells [7]): 250 | form I DNA remaining after 1 minute incubation [4]: 6.5% | rate of DNA cleavage relative to TLM S10b ([4]; equipotent doses compared directly): approximately 10 times | times less potent than TLM S10b in DNA cleavage ([4]; metal-free FLM, stoichiometric Fe(II), 20 minutes): 12 times | cleavage of plasmid DNA in vitro ([4]; result in words): able to cleave form I DNA; also recorded: cleaves pGEM-3Z plasmid DNA in vitro in a concentration-dependent manner | fold difference in drug accumulation, FLM vs BLM A2 (A-253 cells [8]; 50 μM): ~2 fold | cell-associated FLM (A-253 cells [8]; 100 μM FLM, fluorometry): 246 pmol/106 cells | cell-associated drug, comparison of BLM A2 and FLM (A-253 cells [8]; 100 μM drug): 255 pmol/10^6 cells | cell-associated FLM fold higher than for BLM A2 (A-253 cells [8]; 100 μM): approximately 2.5 fold | relative fluorescent units [1]: 836 relative fluorescent units | fluorescent quantum yield ([1]; 50 mM bicarbonate buffer (pH=9.0), excited at 497 nm, emission maximum 523 nm): 0.71 | fluorescent intensity times greater than that of BLM A2, TLM S10b and LBM ([1]; equimolar solutions): 300 to 400 times | cell-associated FLM (C-10E cells [9]; C-10E cells, 100 μM FLM, 1 hour, 37° C., fluorometry): 123 pmol/10^6 cells | fold difference in cell-associated FLM, C-10E lower than A-253 cells (C-10E cells [9]; fluorescent spectrophotometry): 2 fold | times less potent than BLM A2 (antiproliferative potency) [2, 12]: 33 times | times less potent than TLM S10b (antiproliferative potency) [2, 12]: 25 times | IC50 [2]: 1250 ± 80 nM | IC50 value times higher than TLM S10b or BLM A2 ([2]; growth inhibition assay): 25-30 times | cell-associated FLM (C-10E^R cells [10]): 167 pmol/10^6 cells | resistance index C-10E ® (C-10E^R cells [5]): 18 | IC50 (C-10E^R cells [5]): 22000 ± 1100 nM | mean fluorescent channel number (mean FL1) (C-10E cells [11]; C-10E cells, 100 μM FLM, 60 minutes, 37° C.): 61 | fold difference in fluorescent intensity, C-10E lower than A-253 cells (C-10E cells [11]; flow cytometry of FLM content): 4 fold | fold resistance of C-10E cells (C-10E cells [3]): 50 fold | IC50 (C-10E cells [3]): 66000 ± 1700 nM | resistance index C-10E (C-10E cells [3]): 53
